# Assay results: PMC6467574 (Journal of controlled release : official journal of the …, 2018)
# Like-named read-outs stand apart in the source and are kept apart here.
# Assays:
# [1] = Equilibrium solubility determination in test media; assay type: physicochemical; conditions: 37 °C; for Equilibrium solubility, effect of addition of mucin: 0.1, 0.2, 0.4 %w/v mucin in 10 mM phosphate buffer pH 6.50 relative to buffer; for Equilibrium solubility, effect of addition of 8 %w/v PIM: 8 %w/v native pig intestinal mucus in 10 mM phosphate buffer pH 6.50 relative to buffer
# [2] = Supersaturation-precipitation; assay type: physicochemical; conditions: for Duration intended degree of drug supersaturation was maintained / Time to drug precipitation: base buffer, preliminary experiments, SSR 5 (CVDL) / 6 (PXM)
# Caco-2 monolayers = conditions: human, 100 min
# [3] = system: Caco-2:HT29-MTX-E12 co-culture monolayers; conditions: human, 100 min
# [4] = 1 SSR (multiple of equilibrium solubility)
# [5] = 5 SSR (multiple of equilibrium solubility)
SMILES,"Equilibrium solubility, effect of addition of mucin [1]","Equilibrium solubility, effect of addition of 8 %w/v PIM [1]","Time drug remained supersaturated ([2]; SSR = 5, 8 %w/v native PIM, ISE) [h]","Time to precipitation (Tss), effect of increasing mucin concentration ([2]; SSR = 5, ISE, up to 0.2 %w/v mucin)","Time within which supersaturated drug precipitated (ISE) ([2]; SSR = 5, absence of mucus, ISE, average ± SEM, n=3) [min]","Time after which drug precipitated (HPLC) ([2]; SSR = 5, buffer solution, HPLC analysis) [min]","SSR maintained throughout the monitoring period ([2]; SSR = 5 induced, 0.4 %w/v mucin, ISE, 24 h)","SSR maintained throughout the monitoring period ([2]; SSR = 5 induced, 8 %w/v PIM, ISE, 24 h)",Duration intended degree of drug supersaturation was maintained [2],Time to drug precipitation [2] [h],TEER relative to starting value (Caco-2 monolayers; [4]) [% starting value],TEER relative to starting value (Caco-2 monolayers; [5]),"TEER relative to starting value [3, 4] [% starting value]","TEER relative to starting value [3, 5]","Time after which drug started to precipitate ([2]; SSR = 6, buffer alone, HPLC) [h]","SSR reached at 24 h ([2]; SSR = 6 induced, buffer alone, HPLC)","SSR maintained throughout the monitoring period ([2]; SSR = 6 induced, presence of mucin (regardless of concentration) and PIM, HPLC)"
"COc1ccccc1OCCNCC(O)COc1cccc2[nH]c3ccccc3c12 (stereo not drawn) [CVDL, Carvedilol]",did not change,significantly increased,24,significantly increased,19 ± 4,> 10,> 3,> 3,at least 5 min,≤ 1,> 80,~ 60 % starting value,> 80,~ 60 % starting value,,,
"CN1C(C(=O)Nc2ccccn2)=C(O)c2ccccc2S1(=O)=O [PXM, piroxicam]",appeared to increase,significantly increased,,,,,,,at least 5 min,≤ 5,,,,,> 5,~ 4,6
